A short description of this experiment: Inhibition of Influenza A virus (A/California/04/2009 (H1N1-H274Y)) Neuraminidase using MUNANA as substrate preincubated for 5 to 15 mins followed by substrate addition and measured after 30 mins by fluorescence spectrophotometric method.

Data on two compounds can be found in ChEMBL document CHEMBL4680272 (Eur J Med Chem, 2020).

Broadly, the IC50 is the concentration needed to halve the response being measured. Higher therefore signals a need for much substance.

`CCC(CC)O[C@@H]1C=C(C(=O)O)C[C@H](NC(N)=O)[C@H]1NC(C)=O` had an IC50 of 667 nM.

Turning to `CCC(CC)O[C@@H]1C=C(C(=O)O)C[C@H](N)[C@H]1NC(C)=O` [OSELTAMIVIR CARBOXYLATE], the IC50 turned out to be 4070 nM.
